Test results: patent US6413997B1, “3-(substituted phenyl)-5-(substituted heterocyclyl)-1,2,4-triazole compounds” (priority 1998, dated 2002)

How the values were obtained:
Type in all cases: in vivo
[1] = test system: cotton aphids (aphis gossypii); experiment: Insecticidal test for cotton aphid, foliar spray on infested squash cotyledons; details: 50 ppm spray, graded after 3 days, versus untreated check
Description: Insecticidal Test for Cotton Aphid (Aphis gossypii)
To prepare spray solutions, 2 mg of each test compound was dissolved into 2 mL of a 90:10 acetone:ethanol solvent. This 2 mL of chemical solution was added to 38 mL of water containing 0.05% Tween 20 surfactant to produce a 50 ppm spray solution.
Squash cotyledons were infested with cotton aphid (all life stages16-20 hours prior to application of spray solution. The solution was sprayed on both sides of each infested squash cotyledon (0.5 mL×2 each side with a sweeping action using a total of 2 mL of spray solution. The plants were allowed to air dry and held for 3 days in a controlled room at 26° C. and 40% RH after which time the test was graded. Grading was by actual count using a dissecting microscope and comparison of test counts to the untreated check. Results are given in Table 1 as percent control based on population reduction versus the untreated.

[2] = test system: twospotted spider mite (tetranychus uriticae); experiment: Two-spotted spider mite test, ovicide method on cotton leaf discs; details: leaf disc dip, 6 days, hatched larvae versus untreated discs
Description: Insecticidal Test for Two-spotted Spider Mite (Tetranychus urticae)
Ten adult female two-spotted spider mites were placed on eight 2.2 cm leaf discs of cotton leaf, allowed to oviposit over 24 hours, and thereafter removed. The leaf discs were immersed in 100 ppm test solutions for 3 seconds, then allowed to dry with sixteen discs left untreated as a negative control. Discs were placed on an agar substrate and held at 24° C. and 90% relative humidity for 6 days.

[3] = test system: sweetpotato whitefly (bemisia tabaci); experiment: Sweetpotato whitefly test on cotton plants under laboratory conditions; details: 800 ppm (table footnote), spray on cotton plants with eggs, 21 days, spent pupal cases versus solution-only plants
Description: Evaluation of Tests Compounds on Sweetpotato Whitefly (Bemisia tabacia) Under Laboratory Conditions
Four mg of each test compound was dissolved by adding 5 ml of a 90:10 acetone:ethanol solvent mixture to the vial containing the sample compound. […]
Five-week-old cotton plants reared in a greenhouse were stripped of all foliage except for the two uppermost true leaves that were greater than 5 cm in diameter. These plants were then placed into a laboratory colony of whiteflies for three days for oviposition by the colony females. All whiteflies were then removed from the test plants with pressurized air. The spray solution was then applied to the test plants with a hand-held syringe fitted with hollow cone nozzle. One mL spray solution was applied to each leaf top and bottom for a total of 4 mL per plant. Four replications of each test compound utilized a total of 16 mL spray solution. Plants were air dried and then placed in a holding chamber (26° C. and 40% RH for 21 days. Compound efficacy was evaluated by counting, under a dissecting microscope, the number of spent pupal cases per leaf. A spent pupal case represents a whitefly egg that has undergone full development to achieve adult status, thus indicating lack of control.
Percent control based on reduction of spent pupal cases of a test compound compared to solution-only (no test compound sprayed plants is reported in Table 1.

Question: How did the “CA: activity at 50 ppm against cotton aphids (rating of % mortality / percent control)” value (from here on “CA … (rating of % mortality / percent control)”) [1] turn out when `Cn1nc(-c2c(F)cccc2F)nc1-c1sc(Cl)nc1Cl` [Compound 42] was run?
Answer: B (81-90)

Question: And the “TSSM: activity at 100 ppm against twospotted spider mite (rating of % mortality / percent control)” value (shortened to “TSSM … (rating of % mortality / percent control)”) [2]?
Answer: A (91-100)

Question: And the “WF: activity at 800 ppm against sweetpotato whitefly (rating of % mortality / percent control)” value (“WF … (rating of % mortality / percent control)” for short) [3]?
Answer: G (Inactive)

Question: `Cc1nc(-c2nc(-c3c(F)cccc3Cl)nn2C)cs1` [Compound 49] was tested. Which “TSSM … (rating of % mortality / percent control)” value [2] did it give?
Answer: C (71-80)

Question: Which “CA … (rating of % mortality / percent control)” value [1] does the source give for `Cc1nc(C(F)(F)F)sc1-c1nc(-c2c(F)cccc2F)nn1C` [Compound 91] here?
Answer: C (71-80)

Question: With `CCn1nc(C)cc1-c1nc(-c2c(F)cccc2F)nn1C` [Compound 60] as the compound, how does the “CA … (rating of % mortality / percent control)” value [1] read?
Answer: B (81-90)

Question: And the “TSSM … (rating of % mortality / percent control)” value [2]?
Answer: G (Inactive)

Question: `Cn1nc(-c2c(F)cccc2F)nc1-c1cc(-c2ccc(Cl)cc2)ns1` [Compound 9] was tested. Which “CA … (rating of % mortality / percent control)” value [1] did it give?
Answer: E (51-60)

Question: What about the “WF … (rating of % mortality / percent control)” value [3] of the same compound?
Answer: G (Inactive)

Question: What does the source list for `Cn1cc(Cl)c(-c2nc(-c3c(F)cccc3Cl)nn2C)n1` [Compound 75]?
Answer: TSSM: activity at 100 ppm against twospotted spider mite (rating of % mortality / percent control) [2]: G (Inactive); WF: activity at 800 ppm against sweetpotato whitefly (rating of % mortality / percent control) [3]: B (81-90)

Question: For `Cc1cc(-c2nc(-c3c(F)cccc3Cl)nn2C)n(C)n1` [Compound 63], which “CA … (rating of % mortality / percent control)” value [1] is on record?
Answer: A (91-100)

Question: What about the “TSSM … (rating of % mortality / percent control)” value [2] of the same compound?
Answer: G (Inactive)

Question: With `Cc1nc(-c2nc(-c3c(F)cccc3F)nn2C)cs1` [Compound 48] as the compound, how does the “CA … (rating of % mortality / percent control)” value [1] read?
Answer: D (61-70)

Question: And the “TSSM … (rating of % mortality / percent control)” value [2]?
Answer: G (Inactive)

Question: `Cn1nc(-c2c(F)cccc2F)nc1-c1snc(-c2ccc([N+](=O)[O-])cc2)c1Br` [Compound 15] was tested. Which “TSSM … (rating of % mortality / percent control)” value [2] did it give?
Answer: G (Inactive)

Question: And the “WF … (rating of % mortality / percent control)” value [3]?
Answer: G (Inactive)

Question: For `Cc1nc(-c2ccc(Cl)cc2)sc1-c1nc(-c2c(F)cccc2F)nn1C` [Compound 90], which “TSSM … (rating of % mortality / percent control)” value [2] is on record?
Answer: A (91-100)

Question: `CCCc1c(-c2nc(-c3c(F)cccc3F)nn2C)cnn1-c1ccc(Cl)cc1` [Compound 80] was tested. Which “TSSM … (rating of % mortality / percent control)” value [2] did it give?
Answer: G (Inactive)

Question: For `Cn1nc(-c2c(F)cccc2F)nc1-c1cc(C(C)(C)C)no1` [Compound 30], which “CA … (rating of % mortality / percent control)” value [1] is on record?
Answer: D (61-70)

Question: And the “TSSM … (rating of % mortality / percent control)” value [2]?
Answer: G (Inactive)

Question: How did the “TSSM … (rating of % mortality / percent control)” value [2] turn out when `Cc1cc(-c2nc(-c3c(F)cccc3F)nn2C)on1` [Compound 28] was run?
Answer: G (Inactive)

Question: And the “WF … (rating of % mortality / percent control)” value [3]?
Answer: B (81-90)

Question: What does the source list for `Cc1ncoc1-c1nc(-c2c(F)cccc2F)nn1C` [Compound 55, 3-(2,6-Difluorophenyl)-5-(4-methyloxazol-5-yl)-1-methyl[1,2,4]triazole]?
Answer: mortality at 50 ppm ([1]; Aphis gossypii, foliar, 72 h, read-out: CA: activity at 50 ppm against cotton aphids (rating of % mortality / percent control)): 0 to 51%; mortality at 100 ppm ([2]; foliar, 144 h, read-out: TSSM: activity at 100 ppm against twospotted spider mite (rating of % mortality / percent control)): 0 to 51%

Question: For `CCn1nc(-c2nc(-c3c(F)cccc3Cl)nn2C)cc1C` [Compound 74], which “CA … (rating of % mortality / percent control)” value [1] is on record?
Answer: A (91-100)

Question: `Cn1nc(-c2c(F)cccc2F)nc1-c1snc(-c2cccc(C(F)(F)F)c2)c1Br` [Compound 16] was tested. Which “CA … (rating of % mortality / percent control)” value [1] did it give?
Answer: B (81-90)

Question: And the “TSSM … (rating of % mortality / percent control)” value [2]?
Answer: G (Inactive)

Question: Which results are given for `Cc1nc(Cl)sc1-c1nc(-c2c(F)cccc2Cl)nn1C` [Compound 40]?
Answer: CA: activity at 50 ppm against cotton aphids (rating of % mortality / percent control) [1]: A (91-100); TSSM: activity at 100 ppm against twospotted spider mite (rating of % mortality / percent control) [2]: A (91-100)

Question: How did the “CA … (rating of % mortality / percent control)” value [1] turn out when `Cc1ncsc1-c1nc(-c2c(F)cccc2F)nn1C` [Compound 37] was run?
Answer: B (81-90)

Question: What about the “TSSM … (rating of % mortality / percent control)” value [2] of the same compound?
Answer: A (91-100)

Question: `Cn1nc(-c2c(F)cccc2Cl)nc1-c1c(C(F)(F)F)nn(C)c1Cl` [Compound 77] was tested. Which “TSSM … (rating of % mortality / percent control)” value [2] did it give?
Answer: A (91-100)

Question: For `Cc1nn(C)c(Cl)c1-c1nc(-c2c(F)cccc2Cl)nn1C` [Compound 76], which “CA … (rating of % mortality / percent control)” value [1] is on record?
Answer: B (81-90)

Question: What about the “TSSM … (rating of % mortality / percent control)” value [2] of the same compound?
Answer: A (91-100)
